Results taken from ChEMBL document CHEMBL1240392 (Antimicrob Agents Chemother, 2010).
Converted amounts (≈) assume the structure as drawn. The source made the active and inactive calls. The rule behind the calls is not given here.

Columns and labels:
[1] = Half life in C57BL/6 mouse pneumonia model at 60 mg/kg, im; assay type: ADME, organism-based; set-up: dose 60 mg/kg, route intramuscular; settings: in vivo
[2] = Ratio of Cmax to MIC for Acinetobacter baumannii 1327 in pharmacokinetic-pharmacodynamic New Zealand rabbit meningitis model at 30 mg/kg, im; assay type: functional; settings: route intramuscular
[3] = Ratio of AUC to MIC for Acinetobacter baumannii 1327 in pharmacokinetic-pharmacodynamic C57BL/6 mouse pneumonia model at 60 mg/kg, im; assay type: functional; settings: route intramuscular
[4] = AUC in C57BL/6 mouse pneumonia model at 60 mg/kg, im; assay type: ADME, organism-based; set-up: dose 60 mg/kg, route intramuscular; settings: in vivo
[5] = Cmax in C57BL/6 mouse pneumonia model at 60 mg/kg, im; assay type: ADME, organism-based; set-up: dose 60 mg/kg, route intramuscular; settings: in vivo
Acinetobacter baumannii [6] = experiment: Antibacterial activity against Acinetobacter baumannii infected in C57BL/6 mouse model assessed as survival rate at total dose of 240 mg/kg/day, im administered as four divided doses measured after 72 hrs post last dose relative to control; assay type: functional; settings: route intramuscular
Acinetobacter baumannii [7] = experiment: Antimicrobial activity against Acinetobacter baumannii 940; assay type: functional
[8] = Ratio of AUC to MIC for Acinetobacter baumannii 1327 in pharmacokinetic-pharmacodynamic New Zealand rabbit meningitis model at 30 mg/kg, im; assay type: functional; settings: route intramuscular
Acinetobacter baumannii [9] = experiment: Antimicrobial activity against Acinetobacter baumannii 1417 after 24 hrs by time-kill assay; assay type: functional, organism-based
Acinetobacter baumannii [10] = experiment: Antimicrobial activity against Acinetobacter baumannii 506 after 24 hrs by time-kill assay; assay type: functional, organism-based
Acinetobacter baumannii [11] = experiment: Antimicrobial activity against Acinetobacter baumannii infected in C57BL/6 mouse model assessed as reduction in bacterial count in blood at total dose of 240 mg/kg/day, im administered as four divided doses after 72 hrs; assay type: functional; set-up: scale not given: the % may be the effect or the level left; settings: route intramuscular
[12] = Ratio of Cmax to MIC for Acinetobacter baumannii 1327 in pharmacokinetic-pharmacodynamic C57BL/6 mouse pneumonia model at 60 mg/kg, im; assay type: functional; settings: route intramuscular
[13] = Cmax in New Zealand rabbit meningitis model at 30 mg/kg, im; assay type: ADME, organism-based, Oryctolagus cuniculus; set-up: dose 30 mg/kg, route intramuscular; settings: in vivo
Acinetobacter baumannii [14] = experiment: Antimicrobial activity against Acinetobacter baumannii 940 after 24 hrs by time-kill assay; assay type: functional, organism-based
Acinetobacter baumannii [15] = experiment: Antimicrobial activity against Acinetobacter baumannii 1417; assay type: functional
Acinetobacter baumannii [16] = experiment: Antimicrobial activity against Acinetobacter baumannii 1327; assay type: functional
[17] = T>MIC in Acinetobacter baumannii infected C57BL/6 mouse pneumonia model at 60 mg/kg, im; assay type: functional; settings: route intramuscular
Acinetobacter baumannii [18] = experiment: Antimicrobial activity against Acinetobacter baumannii 506; assay type: functional
Acinetobacter baumannii [19] = experiment: Antimicrobial activity against Acinetobacter baumannii 1327 after 24 hrs by time-kill assay; assay type: functional, organism-based
[20] = Half life in New Zealand rabbit meningitis model at 30 mg/kg, im; assay type: ADME, organism-based, Oryctolagus cuniculus; set-up: dose 30 mg/kg, route intramuscular; settings: in vivo
Acinetobacter baumannii [21] = experiment: Antimicrobial activity against Acinetobacter baumannii infected in C57BL/6 mouse model assessed as reduction in bacterial count per gram of lung at total dose of 240 mg/kg/day, im administered as four divided doses after 72 hrs (RVb = 10.6+/-0.27); assay type: functional, organism-based
[22] = AUC in New Zealand rabbit meningitis model at 30 mg/kg, im; assay type: ADME, organism-based, Oryctolagus cuniculus; set-up: dose 30 mg/kg, route intramuscular; settings: in vivo
[23] = T>MIC in Acinetobacter baumannii infected New Zealand rabbit meningitis model at 30 mg/kg, im; assay type: functional; settings: route intramuscular
[24] = Half life in C57BL/6 mouse pneumonia model at 30 mg/kg, im; assay type: ADME, organism-based; set-up: dose 30 mg/kg, route intramuscular; settings: in vivo
[25] = Half life in New Zealand rabbit meningitis model at 120 mg/kg, im; assay type: ADME, organism-based, Oryctolagus cuniculus; set-up: dose 120 mg/kg, route intramuscular; settings: in vivo
[26] = AUC in C57BL/6 mouse pneumonia model at 30 mg/kg, im; assay type: ADME, organism-based; set-up: dose 30 mg/kg, route intramuscular; settings: in vivo
[27] = Cmax in C57BL/6 mouse pneumonia model at 30 mg/kg, im; assay type: ADME, organism-based; set-up: dose 30 mg/kg, route intramuscular; settings: in vivo
[28] = AUC in New Zealand rabbit meningitis model at 120 mg/kg, im; assay type: ADME, organism-based, Oryctolagus cuniculus; set-up: dose 120 mg/kg, route intramuscular; settings: in vivo
in vivo = settings: New Zealand, rabbit, im, 120 mg/kg
Description: Cmax in New Zealand rabbit meningitis model at 120 mg/kg, im

Acinetobacter baumannii [29] = experiment: Antibacterial activity against Acinetobacter baumannii infected in C57BL/6 mouse model assessed as survival rate at total dose of 120 mg/kg/day, im administered as four divided doses measured after 72 hrs post last dose relative to control; assay type: functional; settings: route intramuscular
[30] = Ratio of AUC to MIC for Acinetobacter baumannii 1327 in pharmacokinetic-pharmacodynamic New Zealand rabbit meningitis model at 120 mg/kg, im; assay type: functional; settings: route intramuscular
[31] = Ratio of AUC to MIC for Acinetobacter baumannii 1327 in pharmacokinetic-pharmacodynamic C57BL/6 mouse pneumonia model at 30 mg/kg, im; assay type: functional; settings: route intramuscular
Acinetobacter baumannii [32] = experiment: Antimicrobial activity against Acinetobacter baumannii clinical isolate; assay type: functional
[33] = T>MIC in Acinetobacter baumannii infected New Zealand rabbit meningitis model at 120 mg/kg, im; assay type: functional; settings: route intramuscular
[34] = Ratio of Cmax to MIC for Acinetobacter baumannii 1327 in pharmacokinetic-pharmacodynamic C57BL/6 mouse pneumonia model at 30 mg/kg, im; assay type: functional; settings: route intramuscular
Acinetobacter baumannii [35] = experiment: Antimicrobial activity against Acinetobacter baumannii infected in C57BL/6 mouse model assessed as reduction in bacterial count per gram of lung at total dose of 120 mg/kg/day, im administered as four divided doses after 72 hrs (RVb = 10.6+/-0.27); assay type: functional, organism-based
[36] = Ratio of Cmax to MIC for Acinetobacter baumannii 1327 in pharmacokinetic-pharmacodynamic New Zealand rabbit meningitis model at 120 mg/kg, im; assay type: functional; settings: route intramuscular
[37] = T>MIC in Acinetobacter baumannii infected C57BL/6 mouse pneumonia model at 30 mg/kg, im; assay type: functional; settings: route intramuscular
Acinetobacter baumannii [38] = experiment: Antimicrobial activity against Acinetobacter baumannii infected in C57BL/6 mouse model assessed as reduction in bacterial count in blood at total dose of 120 mg/kg/day, im administered as four divided doses after 72 hrs; assay type: functional; set-up: scale not given: the % may be the effect or the level left; settings: route intramuscular

CC1(C)[C@H](C(=O)O)N2C(=O)C[C@H]2S1(=O)=O [SULBACTAM]
half-life [1]: 21 min
Ratio [2]: 2.35
Ratio [3]: 2.73
AUC [4]: 87500 ng·h/mL
Cmax [5]: 89.5 µg/mL
survival at 240 mg/kg/day (Acinetobacter baumannii [6]): 40%
MBC (Acinetobacter baumannii [7]): 32 µg/mL (≈ 137 µM)
MIC (Acinetobacter baumannii [7]): 32 µg/mL (≈ 137 µM)
Ratio [8]: 1.78
Activity (Acinetobacter baumannii [9]): Active
Activity (Acinetobacter baumannii [10]): Active
Activity (Acinetobacter baumannii [11]): 33.3%
Ratio [12]: 2.8
Cmax [13]: 75.3 µg/mL
Activity (Acinetobacter baumannii [14]): Active
MBC (Acinetobacter baumannii [15]): 32 µg/mL (≈ 137 µM)
MIC (Acinetobacter baumannii [15]): 32 µg/mL (≈ 137 µM)
MBC (Acinetobacter baumannii [16]): 32 µg/mL (≈ 137 µM)
MIC (Acinetobacter baumannii [16]): 32 µg/mL (≈ 137 µM)
T>MIC [17]: 1.29 h
MBC (Acinetobacter baumannii [18]): 32 µg/mL (≈ 137 µM)
MIC (Acinetobacter baumannii [18]): 32 µg/mL (≈ 137 µM)
Activity (Acinetobacter baumannii [19]): Active
half-life [20]: 32.4 min
Activity (Acinetobacter baumannii [21]): Active
AUC [22]: 57100 ng·h/mL
T>MIC [23]: 0.84 h

C[C@@H](O)[C@H]1C(=O)N2C(C(=O)O)=C(SCCN=CN)C[C@H]12 [IMIPENEM ANHYDROUS]
half-life [24]: 15.6 min
half-life [25]: 104 min
AUC [26]: 11300 ng·h/mL
Cmax [27]: 23.2 µg/mL
AUC [28]: 50400 ng·h/mL
Cmax (in vivo): 25.4 µg/mL

C[C@@H](O)[C@H]1C(=O)N2C(C(=O)O)=C(SCCNC=N)C[C@H]12 [IMIPENEM ANHYDROUS]
survival at 120 mg/kg/day (Acinetobacter baumannii [29]): 28.6%
Ratio [30]: 1.58
MBC (Acinetobacter baumannii [7]): 32 µg/mL (≈ 107 µM)
MIC (Acinetobacter baumannii [7]): 32 µg/mL (≈ 107 µM)
Activity (Acinetobacter baumannii [9]): Active
Ratio [31]: 0.35
MIC (Acinetobacter baumannii [32]): ≥ 64 µg/mL
T>MIC [33]: 0 h
Activity (Acinetobacter baumannii [10]): Active
Ratio [34]: 0.73
Activity (Acinetobacter baumannii [35]): Active
Activity (Acinetobacter baumannii [14]): Active
MBC (Acinetobacter baumannii [15]): 32 µg/mL (≈ 107 µM)
MIC (Acinetobacter baumannii [15]): 32 µg/mL (≈ 107 µM)
MBC (Acinetobacter baumannii [16]): 32 µg/mL (≈ 107 µM)
MIC (Acinetobacter baumannii [16]): 32 µg/mL (≈ 107 µM)
Ratio [36]: 0.79
MBC (Acinetobacter baumannii [18]): 32 µg/mL (≈ 107 µM)
MIC (Acinetobacter baumannii [18]): 32 µg/mL (≈ 107 µM)
Activity (Acinetobacter baumannii [19]): Active
T>MIC [37]: 0 h
Activity (Acinetobacter baumannii [38]): 30.8%
